Test results: patent publication US20230119479A1, “A HISTONE DEACETYLASE INHIBITOR HAVING A NITROGEN-CONTAINING AROMATIC HETEROCYCLYL GROUP” (SHIONOGI & CO., LTD., priority 2019, published 2023)

Assays:
[1] = molecular target: T1, HDAC2 Human recombinant C-terminal FLAG-tag (Homo sapiens, UniProt Q92769); experiment: Measurement of HDAC2 enzyme inhibitory activity (HTRF); format: biochemical; conditions: recombinant HDAC2, H3K9ac peptide, 3 hours room temperature; read-out: HDAC2 IC50
T1 construct: FLAG (C); purchased BPS Bioscience 50052
T1 sequence (Q92769 whole entry): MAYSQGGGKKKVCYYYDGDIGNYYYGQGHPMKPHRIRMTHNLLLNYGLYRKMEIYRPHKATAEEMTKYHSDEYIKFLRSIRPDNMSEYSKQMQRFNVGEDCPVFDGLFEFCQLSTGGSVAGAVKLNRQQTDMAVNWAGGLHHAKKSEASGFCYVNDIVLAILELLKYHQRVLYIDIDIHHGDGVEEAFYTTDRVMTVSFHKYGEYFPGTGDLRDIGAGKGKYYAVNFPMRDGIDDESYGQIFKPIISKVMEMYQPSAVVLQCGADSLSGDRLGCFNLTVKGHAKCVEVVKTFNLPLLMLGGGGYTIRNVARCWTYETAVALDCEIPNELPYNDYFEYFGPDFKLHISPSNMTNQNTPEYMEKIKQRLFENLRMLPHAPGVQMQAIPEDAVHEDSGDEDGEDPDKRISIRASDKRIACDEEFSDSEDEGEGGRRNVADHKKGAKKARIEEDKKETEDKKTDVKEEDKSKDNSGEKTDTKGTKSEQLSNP
Procedure, shortened: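 Compounds were tested at 8 points in 3-fold dilutions from 99 μM final (n=2) against FLAG-tagged HDAC2 with biotinylated H3K9ac (1-21) peptide (0.6 μM as added). The reaction ran 3 h at room temperature in Tris pH 8.0 buffer, then was stopped with SAHA. Deacetylated product was detected by HTRF (Eu-anti-H3K9me0 antibody, streptavidin-XL665) as the 665/615-620 nm ratio.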

[2] = molecular target: T2, human ether-a-go-go related gene (hERG) channel (Homo sapiens, UniProt Q12809); experiment: hERG test (whole cell patch clamp); format: cell-based; conditions: CHO cells expressing hERG; concentration not given
T2 construct: expressed in transfected cells; host or cells: CHO cells
T2 sequence (Q12809 whole entry): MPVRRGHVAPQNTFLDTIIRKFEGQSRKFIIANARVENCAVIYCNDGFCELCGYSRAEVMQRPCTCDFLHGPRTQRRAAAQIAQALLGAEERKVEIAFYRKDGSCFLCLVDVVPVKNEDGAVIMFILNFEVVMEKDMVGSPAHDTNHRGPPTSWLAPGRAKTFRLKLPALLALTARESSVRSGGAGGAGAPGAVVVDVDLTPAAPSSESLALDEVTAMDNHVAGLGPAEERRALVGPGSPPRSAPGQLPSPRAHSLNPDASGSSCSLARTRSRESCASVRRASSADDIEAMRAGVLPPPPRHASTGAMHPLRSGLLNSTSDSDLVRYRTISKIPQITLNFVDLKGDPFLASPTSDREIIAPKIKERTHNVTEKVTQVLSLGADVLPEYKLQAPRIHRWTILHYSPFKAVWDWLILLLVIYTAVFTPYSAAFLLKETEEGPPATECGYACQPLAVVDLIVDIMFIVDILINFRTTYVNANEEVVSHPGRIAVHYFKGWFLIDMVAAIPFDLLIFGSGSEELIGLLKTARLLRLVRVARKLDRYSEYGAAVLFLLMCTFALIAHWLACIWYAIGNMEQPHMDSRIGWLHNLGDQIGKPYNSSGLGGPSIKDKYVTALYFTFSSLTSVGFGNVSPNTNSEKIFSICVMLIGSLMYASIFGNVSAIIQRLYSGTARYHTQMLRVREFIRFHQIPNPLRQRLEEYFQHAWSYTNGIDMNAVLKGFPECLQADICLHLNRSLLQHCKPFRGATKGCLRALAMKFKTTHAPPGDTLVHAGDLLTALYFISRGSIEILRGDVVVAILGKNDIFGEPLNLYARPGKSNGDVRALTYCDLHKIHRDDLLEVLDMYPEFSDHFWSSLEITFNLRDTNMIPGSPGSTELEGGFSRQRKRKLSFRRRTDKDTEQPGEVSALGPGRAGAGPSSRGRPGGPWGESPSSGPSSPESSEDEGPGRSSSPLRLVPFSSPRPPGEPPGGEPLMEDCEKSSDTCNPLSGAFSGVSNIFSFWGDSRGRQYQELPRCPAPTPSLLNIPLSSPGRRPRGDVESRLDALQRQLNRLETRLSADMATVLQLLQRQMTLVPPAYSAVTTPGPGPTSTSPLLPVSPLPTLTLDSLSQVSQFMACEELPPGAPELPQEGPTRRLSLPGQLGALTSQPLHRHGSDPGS
From the text: For the purpose of assessing risk of an electrocardiogram QT interval prolongation of the compound of the present invention, effects of the compound of the present invention on delayed rectifier K^+ current (IKr), which plays an important role in the ventricular repolarization process, was studied using CHO cells expressing human ether-a-go-go related gene (hERG) channel.
After a cell was retained at a membrane potential of −80 mV by whole cell patch clamp method using an automated patch clamp system (QPatch; Sophion Bioscience A/S) and gave a leak potential of −50 mV, IKr induced by depolarization pulse stimulation at +20 mV for 2 seconds, and further, repolarization pulse stimulation at −50 mV for 2 seconds, was recorded. A vehicle, which was the 0.1% dimethyle sulfoxide solution in extracellular solution (NaCl: 145 mmol/L, KCl: 4 mmol/L, CaCl2: 2 mmol/L, MgCl2: 1 mmol/L, glucose:10 mmol/L, HEPES (4-(2-hydroxyethyl)-1-piperazineethanesulfonic acid): 10 mmol/L, pH7.4), or the compound of the present invention had been dissolved at an objective concentration in the extracellular solution was applied to the cell at room temperature for 7 minutes or more. From the recording IKr, an absolute value of the tail peak current was measured based on the current value at the resting membrane potential using analysis software (QPatch assay software; Sophion Bioscience A/S). Further, the % inhibition of tail peak current for the compound of the present invention relative to the tail peak current after application of the vehicle was calculated to assess influence of the compound of the present invention on IKr. The dilution concentration and dilution solvent were changed as necessary.

[3] = Metabolism stability test; format: in vitro ADME; conditions: human liver microsomes 0.5 mg protein/mL, 30 minutes, 37° C., NADPH
Method: Using commercially available pooled human hepatic microsomes, a compound of the present invention is reacted for a constant time, and a remaining rate is calculated by comparing a reacted sample and an unreacted sample, thereby, a degree of metabolism in liver is assessed.
A reaction is performed (oxidative reaction) at 37° C. for 0 minute or 30 minutes in the presence of 1 mmol/L NADPH in 0.2 mL of a buffer (50 mmol/L Tris-HCl pH 7.4, 150 mmol/L potassium chloride, 10 mmol/L magnesium chloride) containing 0.5 mg protein/mL of human liver microsomes. After the reaction, 50 μL of the reaction solution is added to 100 μL of a methanol/acetonitrile=1/1 (v/v), mixed and centrifuged at 3000 rpm for 15 minutes. The compound of the present invention in the supernatant is quantified by LC/MS/MS or Solid Phase Extraction (SPE)/MS, and a remaining amount of the compound of the present invention after the reaction is calculated, letting a compound amount at 0 minute reaction time be 100%. The hydrolysis reaction is carried out in the absence of NADPH, and the glucuronidation reaction is carried out in the presence of 5 mmol/L UDP-glucuronic acid instead of NADPH, and the same operation is carried out thereafter. The dilution concentration and dilution solvent are changed as necessary.

IC50 [1]	remaining rate after reaction [3]	Structure (SMILES)	% inhibition of tail peak current (IKr) [2]
180 nM	80.4%	C[C@H](F)COc1cnc(C(=O)Nc2cc(-c3ccc(F)nc3)ccc2N)cn1 (racemic) [Compound I-125]	18.6%
220 nM	81.8%	Cn1cc(-c2cnc(C(=O)Nc3nc(-c4cccs4)ccc3N)cn2)cn1 [Compound I-017]	–
180 nM	95.3%	Cn1cc(-c2cnc(C(=O)Nc3nc(-n4cccc4)ccc3N)cn2)cn1 [Compound I-023]	–
48 nM	84.8%	Cn1cc(-c2cnc(C(=O)Nc3cc(-c4ccc(F)nc4)ccc3N)cn2)cn1 [Compound I-080]	9.5%
250 nM	103%	N#Cc1ccc(C(=O)Nc2cc(-c3ccc(F)nc3)ccc2N)nc1 [Compound I-092]	30%
140 nM	–	CCOc1cnc(C(=O)Nc2cc(-c3ccc(F)nc3)ccc2N)cn1 [Compound I-118]	23.3%
140 nM	92.9%	Cn1cc(-c2ccc(N)c(NC(=O)c3cnc(C4CC4)cn3)c2)cn1 [Compound I-130]	3.3%
